Results reported in patent US10647680B2, “Urea compound, preparation method therefor and medical use thereof” (Ancureall Pharmaceutical (Shanghai) Co., Ltd., priority 2016, dated 2020).

Assays:
Format in all cases: cell-based
SK-BR-3 (HER2/ErbB2 amp) = assay: In vitro growth inhibition (GI50), SK-BR-3; conditions: Homo sapiens, SK-BR3, HER2/ErbB2 amp+
From the text: (§1) Tumor cell line is an effective cell model for studying the inhibition of tumor cell growth or proliferation in vitro. In the present invention, a representative tumor cell line was selected to determine the cell growth inhibition activity of the present compound. All cell lines used were from ATCC, DSMZ, and the Cell Bank of the Chinese Academy of Sciences. Cell culture conditions and methods were in accordance with the requirements of each cell line. Cells were subcultured in vitro for no more than 3 passages each time, and as required, single-clone purification and identification of cell lines could be carried out.
(§2) The cell culture media used were RPMI1640 (Gibco), MEM (Gibco), McCOY'S5A (Gibco), and IMDM (Gibco). The complete medium was prepared by supplement with 5˜20% fetal calf serum (Gibco), 1% double-antibiotics (10000 units/mL penicillin and 10000 units/mL), 2 mM glutamine or 1 mM sodium pyruvate, respectively.
Human gastric cancer cell line NCI-N87 (HER2/ErbB2 amp, ATCC), human breast cancer cell line HCC1954 (HER2/ErbB2 amp, ATCC) and ZR-75-30 (HER2/ErbB2 amp, ATCC), human adenocarcinoma cell line AU565 (HER2/ErbB2 amp, ATCC), human lung squamous cell carcinoma cell line NCI-H2170 (HER2/ErbB2 amp, ATCC), human bronchioalveolar adenocarcinoma cell line NCI-H1781 (HER2/ErbB2 Ins G776V,C mutant type, ATCC) were cultured with a 1×RPMI1640 complete medium (10% FBS), respectively. Human lung adenocarcinoma cell line Calu-3 (HER2/ErbB2 amp, ATCC) was cultured with 1×MEM, 10% FBS, 1% double antibody, 1% NEAA (Gibco), 2 mM glutamine and 1 mM sodium pyruvate. The human breast cancer cell line SK-BR-3 (HER2/ErbB2 amp, ATCC) was cultured with a McCOY'S5A complete medium (10% FBS).
(§3) Adherent cells were digested with 0.25% pancreatin-EDTA (Gibco). The suspension cells were collected by centrifugation. The supernatant was discarded and the cell pellet was resuspended and counted. Different cell concentrations (5˜10×10^4 cells/mL) were prepared according to the growth cycle of each cell line and then seeded on a 96-well plate (Corning), 100 μL/well. The cells were incubated overnight at 37° C., 5% CO2. The compounds were added to the cells on the second day with 2 wells in parallel. The final concentration of organic solvent shall not exceed 1%. The cells were continually incubated for 3 to 5 days, and then subjected to MTT assay.
(§4) The compound of the present invention and the control compound were dissolved in DMSO (Sigma) respectively, with the purity of more than 98%. The compound was stored in a concentration of 10 mM at −20° C. and diluted to 2- or 10-fold series prior to use.
(§5) Dojindo CCK8 reagent kit was used as MTT assay. THERMO […] FC meter was used as microplate reader.
(§6) For adherent cells, culture medium was removed and immediately replaced with the fresh prepared medium which contains 10% CCK8 reagent (100 μL/well). For the suspension cells, CCK8 was directly added to 10% of the final concentration. The cells were continually incubated for 1˜4 h. When a dark yellow color could be observed in the solvent control wells, the absorbance value at OD450 nm was measured and the cell growth rate was calculated according to the following formula: Cell Growth Rate (%)=100*(T−T0)/(C−T0) T=optical density of drug treatment cell well—optical density of blank control well; T0=optical density of cell well before drug treatment—optical density of blank control well; C=optical density of cell well of solvent control group—optical density of blank control well. The concentration value of 50% inhibition of cell growth (GI50) was calculated according to the drug concentration and cell growth rate curve. The experiment was independently repeated 1˜3 times, and subject to biological statistical analysis. 4. Experimental Results
Tumor cell growth inhibition test was performed by selecting representative compounds (compounds 4, 11, 12, 16, 27, 68, 71, 77, 79, 89 and 116 of the present invention). […]

NCI-H1993 (c-MET amp) = assay: In vitro growth inhibition (GI50), NCI-H1993; conditions: Homo sapiens, H1993, cMET Amp+
From the text: as §1, §2
The human gastric cancer cell line MKN-45 (c-MET amp, ATCC) and the non-small cell lung cancer cell line NCI-H1993 (c-MET amp, ATCC) were cultured in complete medium comprising 1×RPMI1640 and 10% FBS, respectively.
as §3, §4, §5, §6
Tumor cell growth inhibition test was performed by selecting representative compounds (compounds 4, 11, 12, 16, 27, 68, 71, 77, 79, 89 and 116 of the present invention). The initial concentration of the compound was 5,000 nM, then it was serially diluted by 2-fold or 10-fold to 0.01 nM. The GI50 value of each test compound was calculated according to the GI50 assay and calculation method. The experiments were repeated 1 to 3 times, and data were subjected to biological statistical analysis.

[1] = tested on: A375 (BRAF V600E mutant type); assay: In vitro growth inhibition (GI50), A375; conditions: Homo sapiens, A-375
From the text: as §1, §2
Human large cell lung cancer cell NCI-H460 (KRAS […] mutant type, ATCC), human non-small cell lung cancer cell line H1299 (NRAS Q61K mutant type, ATCC), human melanoma cell line A375 (BRAF V600E mutant type, Shanghai Cell Bank of Chinese Academy of Sciences), human colon cancer cell line HCT116 (KRAS G13D mutant type, Shanghai Cell Bank, Chinese Academy of Sciences) were cultured in a complete medium of 1×RPMI1640 (10% FBS), respectively. Human non-small cell lung cancer cells A549 (KRAS G12S mutant type, Shanghai Cell Bank, Chinese Academy of Sciences) were cultured in a complete medium of 1× Ham's supplemented with 10% FBS, 1% double antibody, and 2 mM glutamine.
as §3, §4, §5, §6
Tumor cell growth inhibition test was performed by selecting representative compounds (compounds 4, 11, 12, 16, 27, 68, 71, 77, 79, 89 and 116 of the present invention). The initial concentration of the compound was 5,000 nM, then it was serially diluted by 2-fold or 10-fold to 0.01 nM. […]

GI50 (SK-BR-3 (HER2/ErbB2 amp)) | GI50 (NCI-H1993 (c-MET amp)) | GI50 [1] | Compound
> 2500 nM | > 2500 nM | > 2500 nM | CC(C)(C)c1cc(NC(=O)Nc2ccc(-n3cnc4cc(OCCN5CCOCC5)ccc43)cc2)[nH]n1 [Compound 89, 1-(5-tert-butyl-2H-pyrazol-3-yl)-3-{4-[5-(2-morpholin-4-yl-ethoxyl)-benzimidazol-1-yl]-phenyl}-urea]
> 2500 nM | > 2500 nM | > 2500 nM | CC(C)(C)c1cc(NC(=O)Nc2ccc(-n3cnc4cc(OCCN5CCOCC5)ccc43)cc2)no1 [Compound 16, 1-(5-tert-butyl-isoxazol-3-yl)-3-{4-[5-(2-morpholin-4-yl-ethoxyl)-benzimidazol-1-yl]-phenyl}-urea]
> 2500 nM | > 2500 nM | > 2500 nM | CC(C)(C)c1cc(NC(=O)Nc2ccc(-n3cnc4cc(OCCO)ccc43)cc2)no1 [Compound 11, 1-(5-tert-butyl-isoxazol-3-yl)-3-{4-[5-(2-hydroxy-ethoxyl)-benzimidazol-1-yl]-phenyl]-urea]
> 2500 nM | > 2500 nM | > 2500 nM | CC(C)(C)c1cc(NC(=O)Nc2ccc(-n3cnc4ccc(OCCN5CCOCC5)cc43)cc2)no1 [Compound 27, 1-(5-tert-butyl-isoxazol-3-yl)-3-{4-[6-(2morpholin-4-yl-ethoxyl)-benzimidazol-1-yl]-phenyl}-urea]

More lines, now with the values behind:

Compound | GI50 (SK-BR-3 (HER2/ErbB2 amp)) | GI50 (NCI-H1993 (c-MET amp)) | GI50 [1]
CC(C)(C)c1cc(NC(=O)Nc2ccc(-n3cnc4cc(OCCO)ccc43)cc2)[nH]n1 [Compound 79, 1-(5-tert-butyl-2H-pyrazol-3-yl)-3-{4-[5-(2-hydroxy-ethoxyl)-benzimidazol-1-yl]-phenyl]urea] | > 2500 nM | > 2500 nM | > 2500 nM
COCCOc1ccc2c(c1)ncn2-c1ccc(NC(=O)Nc2cc(C(C)(C)C)n[nH]2)cc1 [Compound 77, 1-(5-tert-butyl-2H-pyrazol-3-yl)-3-{4-[5-(2-methoxyl-ethoxyl)-benzimidazol-1-yl]-phenyl}-urea] | > 2500 nM | > 2500 nM | > 2500 nM
CC(C)(C)c1cc(NC(=O)Nc2ccc(-n3cnc4cc(O)ccc43)cc2)no1 [Compound 4, 1-(5-tert-butyl-isoxazol-3-yl)-3-[4-(5-hydroxy-benzimidazol-1-yl)-phenyl]-urea] | > 2500 nM | > 2500 nM | > 2500 nM
CC(C)(C)c1cc(NC(=O)Nc2ccc(-n3cnc4ccccc43)cc2)[nH]n1 [Compound 68, 1-(4-benzimidazol-1-yl-phenyl)-3-(5-tert-butyl-2H-pyrazol-3-yl)-urea] | > 2500 nM | > 2500 nM | > 2500 nM
COc1ccc2c(c1)ncn2-c1ccc(NC(=O)Nc2cc(C(C)(C)C)n[nH]2)cc1 [Compound 71, 1-(5-tert-butyl-2H-pyrazol-3-yl)-3-[4-(5-methoxyl-benzimidazol-1-yl)-phenyl]-urea] | > 2500 nM | > 2500 nM | > 2500 nM
CC(C)(C)c1cc(N)n(C(=O)Nc2ccc(-n3cnc4ccccc43)cc2)n1 [Compound 116, 5-amino-3-tert-butyl-pyrazol-1-carboxylic acid (4-benzimidazol-1-yl-phenyl)-amide] | > 2500 nM | > 2500 nM | > 2500 nM
